In experiment [1] the test system is induction of TAT by dexamethasone in HepG2 cells. Kind of experiment: Hep G2 TAT assay (inhibition of dexamethasone-induced TAT). Particulars: challenge of 100 nM dexamethasone, IC50 converted to Ki by Cheng and Prusoff equation. Format: cell-based, human.
Experiment [2] concerns the target glucocorticoid receptor (GR) recombinant ligand binding domain (LBD) (Homo sapiens (Human), UniProt P04150). As to the kind of experiment: GR binding fluorescence polarisation (FP) assay. Particulars: displacement of fluorescently tagged ligand. The method, then:
Binding of test compounds to the glucocorticoid receptor (GR) is determined using a fluorescence polarisation (FP) assay utilising a recombinant ligand binding domain (LBD) of GR. The test compounds are assessed by their ability to displace a fluorescently tagged ligand and detection of the resulting decrease in fluorescence polarisation.
In general terms: Polarisation of emitted light reports the rotation of a fluorescent probe.

The values that follow come from patent US11787780B2 (CORCEPT THERAPEUTICS INCORPORATED, priority 2020, dated 2023).

Usually Ki stands for the dissociation constant of the complex between target and ligand, obtained from inhibition or displacement. High values mean a looser hold on the target, low ones a stronger hold on the target. Broadly, the IC50 is the concentration needed to halve the response being measured.

The structures appear in SMILES notation.

Chain of glucocorticoid receptor (GR) recombinant ligand binding domain (LBD) (P04150 524-758): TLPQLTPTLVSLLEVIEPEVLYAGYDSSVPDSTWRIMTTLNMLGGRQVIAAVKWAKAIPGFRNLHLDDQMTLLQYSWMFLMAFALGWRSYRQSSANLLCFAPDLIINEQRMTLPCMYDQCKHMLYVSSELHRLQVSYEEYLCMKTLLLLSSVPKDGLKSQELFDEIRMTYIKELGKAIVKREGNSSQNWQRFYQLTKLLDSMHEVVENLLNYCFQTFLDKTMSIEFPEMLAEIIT

Turning to `Cc1cc2c(cnn2-c2ccc(=O)n(C)c2)cc1C1(Cc2ccccc2)CCN(S(=O)(=O)c2cccc(C(F)(F)F)n2)C1` (stereo not shown) [Example 303, 5-(5-(3-benzyl-1-((6-(trifluoromethyl)pyridin-2-yl)sulfonyl)pyrrolidin-3-yl)-6-methyl-1H-indazol-1-yl)-1-methylpyridin-2(1H)-one], in experiment [1], affinity was put at a Ki of 24 nM. Moreover, in experiment [2], the IC50 worked out at 4.4 nM.

The molecule `[2H]C([2H])([2H])n1cc(-n2ncc3cc(C4(Cc5ccccc5)CCN(S(=O)(=O)c5cnn(C)n5)C4)c(C)cc32)cn1` (stereo not shown) [Example 250, 5-(3-benzyl-1-((2-methyl-2H-1,2,3-triazol-4-yl)sulfonyl)pyrrolidin-3-yl)-6-methyl-1-(1-(methyl-d3)-1H-pyrazol-4-yl)-1H-indazole] displayed a Ki in experiment [1] of 26 nM. For the same molecule, the concentration for half-maximal inhibition (IC50) in experiment [2] came out at 4.1 nM.

Take `Cc1cc2c(cnn2-c2ccc(=O)n(C(F)F)c2)cc1C1(Cc2ccccc2)CCN(S(=O)(=O)c2cnn(C)n2)C1` (stereo not shown) [Example 247, 5-(5-(3-benzyl-1-((2-methyl-2H-1,2,3-triazol-4-yl)sulfonyl)pyrrolidin-3-yl)-6-methyl-1H-indazol-1-yl)-1-(difluoromethyl)pyridin-2(1H)-one]: the Ki in experiment [1] is 240 nM. Further, in experiment [2], the IC50 turned out to be 55 nM.

The molecule `COc1cc2c(cnn2-c2ccc(F)cc2)cc1C1(Cc2ccccc2)CCN(C(=O)c2nccs2)C1` (stereo not shown) [Example 233, (3-benzyl-3-(1-(4-fluorophenyl)-6-methoxy-1H-indazol-5-yl)pyrrolidin-1-yl)(thiazol-2-yl)methanone] registered a Ki in experiment [1] of 52 nM. Further, the IC50 in experiment [2] came out at 70 nM.

In the case of `COc1cc2c(cnn2-c2ccc(F)cc2)cc1C1(Cc2ccccc2)CCN(C(=O)c2cncs2)C1` (stereo not shown) [Example 231, (3-benzyl-3-(1-(4-fluorophenyl)-6-methoxy-1H-indazol-5-yl)pyrrolidin-1-yl)(thiazol-5-yl)methanone], the affinity in experiment [1], expressed as Ki, was 48 nM. The concentration for half-maximal inhibition (IC50) in experiment [2] is 13 nM.

`COc1cccc(S(=O)(=O)N2CCC(Cc3ccccc3)(c3cc4cnn(-c5ccc(=O)n(C)c5)c4cc3C)C2)c1` (stereo not shown) [Example 310, 5-(5-(3-benzyl-1-((3-methoxyphenyl)sulfonyl)pyrrolidin-3-yl)-6-methyl-1H-indazol-1-yl)-1-methylpyridin-2(1H)-one] had an inhibitory constant (Ki) in experiment [1] of 66 nM. The 50% inhibitory concentration (IC50) in experiment [2] came to 11 nM.

In turn, `Cc1cc2c(cnn2-c2ccc(F)cc2)cc1C1(Cc2cccc(C(F)(F)F)c2)CCN(S(C)(=O)=O)C1` (stereo not shown) [Example 175] returned a Ki in experiment [1] of 20 nM. The half-inhibitory concentration (IC50) in experiment [2] was 24 nM.

`CCCn1cc(S(=O)(=O)N2CC3CCN(c4cc5cnn(-c6ccc(F)cc6)c5cc4C)C3C2)cn1` (stereo not shown) [Example 91] returned a Ki in experiment [1] of 336 nM. Besides, the IC50 in experiment [2] is 227 nM.

Take `Cc1cc2c(cnn2-c2ccc(F)cc2)cc1C1(Cc2ccccc2)CCN(S(=O)(=O)C2CC2)C1` (stereo not shown) [Example 155]: the affinity in experiment [1] corresponds to a Ki of 16 nM. In experiment [2], the IC50 was determined as 13 nM.

In the case of `CCCn1cc(S(=O)(=O)N2CCN(c3cc4cnn(-c5ccc(F)cc5)c4cc3C)CC23CC3)cn1` [Example 60], in experiment [1], affinity was put at a Ki of 39 nM. The IC50 in experiment [2] is 8 nM.

In experiment [1], `Cc1cc2c(cnn2-c2ccc(F)c(CO)c2)cc1C1(Cc2ccccc2)CCN(S(=O)(=O)c2cnn(C)n2)C1` (stereo not shown) [Example 242, (5-(5-(3-benzyl-1-((2-methyl-2H-1,2,3-triazol-4-yl)sulfonyl)pyrrolidin-3-yl)-6-methyl-1H-indazol-1-yl)-2-fluorophenyl)methanol] had a Ki of 44 nM. Besides, the IC50 in experiment [2] was determined as 18 nM.

As for `Cc1cc2c(cnn2-c2ccc(=O)n(C)c2)cc1C1(Cc2ccccc2)CCN(S(=O)(=O)c2cccc(F)c2F)C1` (stereo not shown) [Example 317, 5-(5-(3-benzyl-1-((2,3-difluorophenyl)sulfonyl)pyrrolidin-3-yl)-6-methyl-1H-indazol-1-yl)-1-methylpyridin-2(1H)-one], the affinity in experiment [1], expressed as Ki, was 23 nM. For the same molecule, the IC50 in experiment [2] is 8.9 nM.

In turn, `Cc1cc2c(cnn2-c2ccc(=O)n(C)c2)cc1C1(Cc2ccccc2)CCN(S(=O)(=O)c2cccc(C#N)c2)C1` (stereo not shown) [Example 295, 3-((3-benzyl-3-(6-methyl-1-(1-methyl-6-oxo-1,6-dihydropyridin-3-yl)-1H-indazol-5-yl)pyrrolidin-1-yl)sulfonyl)benzonitrile] registered a Ki in experiment [1] of 62 nM. In experiment [2], the IC50 turned out to be 6.3 nM.

In experiment [1], `Cc1cc2c(cnn2-c2cc(C3CC3)c(=O)n(C)c2)cc1C1(Cc2ccccc2)CCN(S(=O)(=O)c2cnn(C)n2)C1` (stereo not shown) [Example 262, 5-(5-(3-benzyl-1-((2-methyl-2H-1,2,3-triazol-4-yl)sulfonyl)pyrrolidin-3-yl)-6-methyl-1H-indazol-1-yl)-3-cyclopropyl-1-methylpyridin-2(1H)-one] yielded a Ki of 190 nM. In experiment [2], the half-maximal inhibitory concentration (IC50) was 280 nM.

In experiment [1], `Cc1cc2c(cnn2-c2ccc(F)c(C#N)c2)cc1C1(Cc2ccccc2)CCN(S(=O)(=O)c2cnn(C)n2)C1` (stereo not shown) [Example 239, 5-(5-(3-benzyl-1-((2-methyl-2H-1,2,3-triazol-4-yl)sulfonyl)pyrrolidin-3-yl)-6-methyl-1H-indazol-1-yl)-2-fluorobenzonitrile] had a Ki of 36 nM. Also, in experiment [2], the IC50 came to 28 nM.

With `Cc1cc2c(cnn2-c2ccc(F)cc2)cc1C1(Cc2ccccc2)CCN(C)C1` (stereo not shown) [Example 20, 5-(3-benzyl-1-methylpyrrolidin-3-yl)-1-(4-fluorophenyl)-6-methyl-1H-indazole], in experiment [1], the Ki is 236 nM. For the same molecule, the half-inhibitory concentration (IC50) in experiment [2] came to 8 nM.

Consider `Cc1cc2c(cnn2-c2ccc(=O)n(C)c2)cc1C1(Cc2ccccc2)CCN(S(=O)(=O)c2cc(F)cc(F)c2)C1` (stereo not shown) [Example 297, 5-(5-(3-benzyl-1-((3,5-difluorophenyl)sulfonyl)pyrrolidin-3-yl)-6-methyl-1H-indazol-1-yl)-1-methylpyridin-2(1H)-one], for which the inhibitory constant (Ki) in experiment [1] amounted to 36 nM. Further, the half-maximal inhibitory concentration (IC50) in experiment [2] is 10 nM.

Regarding `CC(=O)N1CCC(S(=O)(=O)N2CCC(Cc3ccccc3)(c3cc4cnn(-c5ccc(F)cc5)c4cc3C)C2)CC1` (stereo not shown) [Example 325, 1-(4-((3-benzyl-3-(1-(4-fluorophenyl)-6-methyl-1H-indazol-5-yl)pyrrolidin-1-yl)sulfonyl)piperidin-1-yl)ethan-1-one], the affinity in experiment [1] corresponds to a Ki of 110 nM. Further, in experiment [2], the IC50 came to 28 nM.

In experiment [1], `Cc1cc2c(cnn2-c2ccc(=O)n(C)c2)cc1C1(Cc2ccccc2)CCN(S(=O)(=O)c2ccc(F)c(F)c2)C1` (stereo not shown) [Example 287, 5-(5-(3-benzyl-1-((3,4-difluorophenyl)sulfonyl)pyrrolidin-3-yl)-6-methyl-1H-indazol-1-yl)-1-methylpyridin-2(1H)-one] showed a Ki of 25 nM. Moreover, the half-maximal inhibitory concentration (IC50) in experiment [2] is 6.7 nM.

`Cc1cc2c(cnn2-c2ccc(F)cc2)cc1C1(Cc2ccccc2)CCN(S(=O)(=O)c2cnn(C)n2)C1` (stereo not shown) [Example 213, 5-(3-benzyl-1-((2-methyl-2H-1,2,3-triazol-4-yl)sulfonyl)pyrrolidin-3-yl)-1-(4-fluorophenyl)-6-methyl-1H-indazole]: the affinity in experiment [1], expressed as Ki, was 13 nM. Besides, the IC50 in experiment [2] turned out to be 17 nM.

As to `CCCn1cc(S(=O)(=O)N2CCC(Cc3ccccc3)(c3cc4cnn(-c5ccc(F)cc5)c4cc3C)C2)cn1` (stereo not shown) [Example 147], the inhibition constant Ki in experiment [1] was 12 nM. The 50% inhibitory concentration (IC50) in experiment [2] is 42 nM.

As for `C[C@@H]1CN(S(=O)(=O)c2cnn(C)c2)CCN1c1ccc2c(cnn2-c2ccc(F)cc2)c1` [Example 1, (R)-1-(4-fluorophenyl)-5-(2-methyl-4-((1-methyl-1H-pyrazol-4-yl)sulfonyl)piperazin-1-yl)-1H-indazole], the affinity in experiment [1] corresponds to a Ki of 594 nM. The IC50 in experiment [2] was 930 nM.

As for `Cc1cc2c(cnn2-c2cnn(C(F)F)c2)cc1C1(Cc2ccccc2)CCN(S(=O)(=O)c2cnn(C)n2)C1` (stereo not shown) [Example 255, 5-(3-benzyl-1-((2-methyl-2H-1,2,3-triazol-4-yl)sulfonyl)pyrrolidin-3-yl)-1-(1-(difluoromethyl)-1H-pyrazol-4-yl)-6-methyl-1H-indazole], the inhibition constant (Ki) in experiment [1] worked out at 44 nM. Moreover, in experiment [2], the IC50 amounted to 27 nM.

`Cc1cc2c(cnn2-c2ccc(=O)n(C)c2)cc1C1(Cc2ccccc2)CCN(S(=O)(=O)c2cncc(F)c2)C1` (stereo not shown) [Example 300, 5-(5-(3-benzyl-1-((5-fluoropyridin-3-yl)sulfonyl)pyrrolidin-3-yl)-6-methyl-1H-indazol-1-yl)-1-methylpyridin-2(1H)-one] displayed an inhibition constant (Ki) in experiment [1] of 36 nM. Further, the half-maximal inhibitory concentration (IC50) in experiment [2] turned out to be 4.6 nM.

`Cc1cc2c(cnn2-c2ccc(=O)n(C)c2)cc1C1(Cc2ccccc2)CCN(S(=O)(=O)c2ccccc2F)C1` (stereo not shown) [Example 301, 5-(5-(3-benzyl-1-((2-fluorophenyl)sulfonyl)pyrrolidin-3-yl)-6-methyl-1H-indazol-1-yl)-1-methylpyridin-2(1H)-one]: affinity in experiment [1] was put at a Ki of 25 nM. In addition, the IC50 in experiment [2] came out at 4.8 nM.

`Cc1cc2c(cnn2-c2ccc(F)cc2)cc1C1(Cc2ccccc2)CCN(S(=O)(=O)c2cnn(C)c2)C1` (stereo not shown) [Example 153]: in experiment [1], the Ki is 26 nM. Moreover, in experiment [2], the IC50 was determined as 11 nM.

`CC(=O)N1CCC(Cc2ccc(C(F)(F)F)cc2)(c2cc3cnn(-c4ccc(F)cc4)c3cc2C)C1` (stereo not shown) [Example 194, 1-(3-(1-(4-fluorophenyl)-6-methyl-1H-indazol-5-yl)-3-(4-(trifluoromethyl)benzyl)pyrrolidin-1-yl)ethan-1-one] returned an inhibitory constant (Ki) in experiment [1] of 102 nM. In addition, the concentration for half-maximal inhibition (IC50) in experiment [2] was determined as 109 nM.

`CCCn1cc(S(=O)(=O)N2CCC(Cc3ccccc3)(c3cc4cnn(-c5ccc(F)cc5)c4cc3C)CC2)cn1` [Example 25, 5-(4-benzyl-1-((1-propyl-1H-pyrazol-4-yl)sulfonyl)piperidin-4-yl)-1-(4-fluorophenyl)-6-methyl-1H-indazole] showed a Ki in experiment [1] of 29 nM. Moreover, in experiment [2], the IC50 was 67 nM.

Molecule `Cc1cc2c(cnn2-c2ccc(F)cc2)cc1C1(Cc2ccc(F)cc2)CCN(S(C)(=O)=O)C1` (stereo not shown) [Example 174] had an inhibitory constant (Ki) in experiment [1] of 28 nM. Moreover, the IC50 in experiment [2] was 9 nM.
